Tests used:
[1] = tested on: β-Glucosidase derived from almond; assay: Reactivity toward various isoflavone glycosides (HPLC); format: biochemical; parameters: unit not given here; details: 55 °C, pH 4.0
Method: (§1) Diglycosidase was diluted with an acetate buffer of pH 4.0 to prepare a 0.75 AU/mL enzyme solution. As references, a similar operation was conducted using β-glucosidase (manufactured by Fluka) derived from Aspergillus niger, β-glucosidase (manufactured by Sigma) derived from almond, β-xylosidase derived from pectinase G (manufactured by Amano Enzyme Inc.). Each of purified products of isoflavone glycosides (glycitin, acetylglycitin, malonylglycitin, daidzin, acetyldaidzin, malonyldaidzin, genistin, acetylgenistin, malonylgenistin, all manufactured by Nacalai Tesque, Inc.) was dissolved in methanol to prepare each 2 mM substrate solution. The reaction was carried out by mixing 10 μL of a substrate solution, 200 μL of 20 mM acetate buffer (pH 4.0), and 40 μL of each purified enzyme solution at a total liquid volume of 250 μL. The reaction was carried out at 55° C. and isolation of an aglycon isoflavone from an isoflavone glycoside in the reaction mixture was detected by HLPC at 0, 1, 3, and 6 hours of the reaction.
(§2) To the reaction mixture was added 700 μL of ethanol, followed by stirring and ultrasonication. After centrifugation at 15,000 rpm and 4° C. for 10 minutes, the supernatant was filtered through a filter and then the filtrate was applied to HPLC.
(§3) The isoflavone glycoside and aglycon isoflavone contained in the filtrate was separated and detected by a high performance liquid chromatography (HPLC, Shimadzu CLASS LC-10 system) using TOSOH TSK gel ODS-80TM column (manufactured by Tosoh Corporation). […] The absorbance at 260 nm was detected by a UV detector (Shimadzu, SPD-10AV). Using purified products (manufactured by Nacalai Tesque, Inc.) of the above isoflavone glycosides and aglycon isoflavones, the isoflavone glycoside and aglycon isoflavone were quantitatively determined according to a calibration curve method. By the way, unless otherwise stated, the measuring conditions of HPLC herein mean those described in the example.

[2] = tested on: β-Xylosidase derived from pectinase G; assay: as above; format: biochemical; parameters: unit not given here; details: 55 °C, pH 4.0
Method: as §1, §2, §3

[3] = tested on: Purified diglycosidase; assay: Influence of free glucose on diglycosidase activity; format: biochemical, Penicillium multicolor IAM7153; details: isolated aglycon amount at glucose 0% and 0.5 hour = 100%
Method: Purified diglycosidase was diluted with 20 mM acetate buffer of pH 4.0 to prepare a 0.75 AU/mL enzyme solution.
With a glucose solution was mixed 10 μL of each 2 mM substrate solution described in Example 2, and 20 mM acetate buffer of pH 4.0 was added thereto to be a liquid volume of 210 μL. Further, 40 μL of the enzyme solution was added and reaction was carried out at a final liquid volume of 250 μL. Adjustment of the glucose solution to be added allows glucose to exist in the reaction mixture in the range of 0 to 20%. The reaction was carried out at 55° C. and the existence of isoflavone glycosides and aglycon isoflavones was detected by HLPC at 0, 0.5, 1, and 3 hours of the reaction.

| Structure (SMILES) | aglycon ([1]; Reaction time 0 h) | glucoside ([1]; Reaction time 0 h) | aglycon ([1]; Reaction time 1 h) | glucoside ([1]; Reaction time 1 h) | aglycon ([1]; Reaction time 3 h) | glucoside ([1]; Reaction time 3 h) | aglycon ([1]; Reaction time 6 h) | glucoside ([1]; Reaction time 6 h) | aglycon ([2]; Reaction time 0 h) | glucoside ([2]; Reaction time 0 h) | aglycon ([2]; Reaction time 1 h) | glucoside ([2]; Reaction time 1 h) | aglycon ([2]; Reaction time 3 h) | glucoside ([2]; Reaction time 3 h) | aglycon ([2]; Reaction time 6 h) | glucoside ([2]; Reaction time 6 h) | Isolation of isoflavone aglycons by diglycosidase in presence of glucose ([3]; Glucose concentration 0 %) [%] | Isolation of isoflavone aglycons by diglycosidase in presence of glucose ([3]; Glucose concentration 2 %) [%] | Isolation of isoflavone aglycons by diglycosidase in presence of glucose ([3]; Glucose concentration 4 %) [%] | Isolation of isoflavone aglycons by diglycosidase in presence of glucose ([3]; Glucose concentration 8 %) [%] | also measured |
| --- | --- | --- | --- | --- | --- | --- | --- | --- | --- | --- | --- | --- | --- | --- | --- | --- | --- | --- | --- | --- | --- |
| CC(=O)OC[C@H]1O[C@@H](Oc2ccc3c(=O)c(-c4ccc(O)cc4)coc3c2)[C@H](O)[C@@H](O)[C@@H]1O [acetyldaidzin, 6″-O-acetyldaidzin] | 0.2 | 99.8 | 0.5 | 99.5 | 0.6 | 99.4 | 0.6 | 99.4 | 0 | 100 | 9.7 | 90.3 | 1.3 | 98.7 | 2.3 | 97.7 | 100 | 108.1 | 112.2 | 115.8 | Isolation of isoflavone aglycons by diglycosidase in presence of glucose ([3]; Glucose concentration 20 %): 114.5% |
| CC(=O)OC[C@H]1O[C@@H](Oc2cc(O)c3c(=O)c(-c4ccc(O)cc4)coc3c2)[C@H](O)[C@@H](O)[C@@H]1O [acetylgenistin, 6″-O-acetylgenistin] | 0 | 100 | 0 | 100 | 0 | 100 | 0 | 100 | 0 | 100 | 0 | 100 | 0.2 | 99.8 | 0.5 | 99.5 | 100 | 104.1 | 104.1 | 104.1 | Isolation of isoflavone aglycons by diglycosidase in presence of glucose ([3]; Glucose concentration 20 %): 104.1% |
| O=c1c(-c2ccc(O)cc2)coc2cc(O[C@@H]3O[C@H](CO)[C@@H](O)[C@H](O)[C@H]3O)ccc12 [daidzin] | 0.9 | 99.1 | 9.1 | 90.9 | 10.8 | 89.2 | 11.3 | 88.7 | 0.9 | 99.1 | 9.1 | 90.9 | 24 | 76 | 42.1 | 57.9 | 100 | 128.1 | 126 | 129.1 | Isolation of isoflavone aglycons by diglycosidase in presence of glucose ([3]; Glucose concentration 20 %): 111.9% |

Second part, led by results:

| aglycon ([1]; Reaction time 0 h) | glucoside ([1]; Reaction time 0 h) | aglycon ([1]; Reaction time 1 h) | glucoside ([1]; Reaction time 1 h) | aglycon ([1]; Reaction time 3 h) | glucoside ([1]; Reaction time 3 h) | aglycon ([1]; Reaction time 6 h) | glucoside ([1]; Reaction time 6 h) | aglycon ([2]; Reaction time 0 h) | glucoside ([2]; Reaction time 0 h) | aglycon ([2]; Reaction time 1 h) | glucoside ([2]; Reaction time 1 h) | aglycon ([2]; Reaction time 3 h) | glucoside ([2]; Reaction time 3 h) | aglycon ([2]; Reaction time 6 h) | glucoside ([2]; Reaction time 6 h) | Isolation of isoflavone aglycons by diglycosidase in presence of glucose ([3]; Glucose concentration 0 %) [%] | Isolation of isoflavone aglycons by diglycosidase in presence of glucose ([3]; Glucose concentration 2 %) [%] | Isolation of isoflavone aglycons by diglycosidase in presence of glucose ([3]; Glucose concentration 4 %) [%] | Isolation of isoflavone aglycons by diglycosidase in presence of glucose ([3]; Glucose concentration 8 %) [%] | Structure (SMILES) | also measured |
| --- | --- | --- | --- | --- | --- | --- | --- | --- | --- | --- | --- | --- | --- | --- | --- | --- | --- | --- | --- | --- | --- |
| 0 | 100 | 0 | 100 | 0 | 100 | 0 | 100 | 0 | 100 | 0 | 100 | 0 | 100 | 0 | 100 | 100 | 100.9 | 100.9 | 100.9 | COc1cc2c(=O)c(-c3ccc(O)cc3)coc2cc1O[C@@H]1O[C@H](COC(C)=O)[C@@H](O)[C@H](O)[C@H]1O [acetylglycitin, 6″-O-acetylglycitin] | Isolation of isoflavone aglycons by diglycosidase in presence of glucose ([3]; Glucose concentration 20 %): 100.9% |
| 0 | 100 | 9.4 | 90.6 | 11.4 | 88.6 | 11.8 | 88.2 | 0 | 100 | 1.5 | 98.5 | 1.8 | 98.2 | 1.8 | 98.2 |  |  |  |  | O=c1c(-c2ccc(O)cc2)coc2cc(O[C@@H]3O[C@H](CO)[C@@H](O)[C@H](O)[C@H]3O)cc(O)c12 [genistin] |  |
| 0 | 100 | 1.6 | 98.4 | 1.9 | 98.1 | 1.9 | 98.1 | 0 | 100 | 0.8 | 99.2 | 2.4 | 97.6 | 4.5 | 95.5 | 100 | 96 | 99.7 | 100.1 | COc1cc2c(=O)c(-c3ccc(O)cc3)coc2cc1O[C@@H]1O[C@H](CO)[C@@H](O)[C@H](O)[C@H]1O [glycitin] | Isolation of isoflavone aglycons by diglycosidase in presence of glucose ([3]; Glucose concentration 20 %): 92.8% |
| 0 | 100 | 0 | 100 | 0 | 100 | 0 | 100 | 0 | 100 | 0.4 | 99.6 | 1.6 | 98.4 | 3.3 | 96.7 | 100 | 125.3 | 132.1 | 125.4 | O=C(O)CC(=O)OC[C@H]1O[C@@H](Oc2ccc3c(=O)c(-c4ccc(O)cc4)coc3c2)[C@H](O)[C@@H](O)[C@@H]1O [malonyldaidzin, 6″-O-malonyldaidzin] | Isolation of isoflavone aglycons by diglycosidase in presence of glucose ([3]; Glucose concentration 20 %): 98.1% |
| 0 | 100 | 0 | 100 | 0 | 100 | 0 | 100 | 0 | 100 | 0 | 100 | 0.6 | 99.4 | 2 | 98 | 100 | 152 | 164.7 | 163.5 | O=C(O)CC(=O)OC[C@H]1O[C@@H](Oc2cc(O)c3c(=O)c(-c4ccc(O)cc4)coc3c2)[C@H](O)[C@@H](O)[C@@H]1O [malonylgenistin, 6″-O-malonylgenistin] | Isolation of isoflavone aglycons by diglycosidase in presence of glucose ([3]; Glucose concentration 20 %): 139.5% |

From patent US7118895B2, “Process for producing aglycon by using diglycosidase and flavor-improved food containing the aglycon and converting agent to be used in the process” (Amano Enzyme Inc., priority 2000, dated 2006)
